Patent US9434711B2 (Janssen Pharmaceutica, NV, priority 2007, dated 2016)

Biological target: canine TRPM8 (Canis lupus familiaris, UniProt Q1A7N1)
Assay: In Vitro Canine TRPM8 Functional Assay (Ca2+ fluorescence, icilin activation)
Type: cell-based
Conditions: for IC50: HEK293 cells stably expressing canine TRPM8, icilin activation, eight-point dose-response, read-out: IC50; for inhibition at 0.2 µM / % Inh @ 0.2 (μM): compound at 0.2 μM, canine TRPM8, icilin activation; for inhibition at 0.2 µM: read-out: % Inh @ 0.2
Procedure, shortened: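 HEK293 cells stably expressing canine TRPM8 were loaded with Calcium 3 dye (35 min at 37 °C, then 25 min at room temperature). Compound was added and Ca2+ fluorescence was read for 5 min before icilin at a concentration giving about 80% maximal response. EC50/IC50 came from eight-point dose-response curves, quadruplicate wells.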

Sequence of canine TRPM8 (Q1A7N1 1-1104): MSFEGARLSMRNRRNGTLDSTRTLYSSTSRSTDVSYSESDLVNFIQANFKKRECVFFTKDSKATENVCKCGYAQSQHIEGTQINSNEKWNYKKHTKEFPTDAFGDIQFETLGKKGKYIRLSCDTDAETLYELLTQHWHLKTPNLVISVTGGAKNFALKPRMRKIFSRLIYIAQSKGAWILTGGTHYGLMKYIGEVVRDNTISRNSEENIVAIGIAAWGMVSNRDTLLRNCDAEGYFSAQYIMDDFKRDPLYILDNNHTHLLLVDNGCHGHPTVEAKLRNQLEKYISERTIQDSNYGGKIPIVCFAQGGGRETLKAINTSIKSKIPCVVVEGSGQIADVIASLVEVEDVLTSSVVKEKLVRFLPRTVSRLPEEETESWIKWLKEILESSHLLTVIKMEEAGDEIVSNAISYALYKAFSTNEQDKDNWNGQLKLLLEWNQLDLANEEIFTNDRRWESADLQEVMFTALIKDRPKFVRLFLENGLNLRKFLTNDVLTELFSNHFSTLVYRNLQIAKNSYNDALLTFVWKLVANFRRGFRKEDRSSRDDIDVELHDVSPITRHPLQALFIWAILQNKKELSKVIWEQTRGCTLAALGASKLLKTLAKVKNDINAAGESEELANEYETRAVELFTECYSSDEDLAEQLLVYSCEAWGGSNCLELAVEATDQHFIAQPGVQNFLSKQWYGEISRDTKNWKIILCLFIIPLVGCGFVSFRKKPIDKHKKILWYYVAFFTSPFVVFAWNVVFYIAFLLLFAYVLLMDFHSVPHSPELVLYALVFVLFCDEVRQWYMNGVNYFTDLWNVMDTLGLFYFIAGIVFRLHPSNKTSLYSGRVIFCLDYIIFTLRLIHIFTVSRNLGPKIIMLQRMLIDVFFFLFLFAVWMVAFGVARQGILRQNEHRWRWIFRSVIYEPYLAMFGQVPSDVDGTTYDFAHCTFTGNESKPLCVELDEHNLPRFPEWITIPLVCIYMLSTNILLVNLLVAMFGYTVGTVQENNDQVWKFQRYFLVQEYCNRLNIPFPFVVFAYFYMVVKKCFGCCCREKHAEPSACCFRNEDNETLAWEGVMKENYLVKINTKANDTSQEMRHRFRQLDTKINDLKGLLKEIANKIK

| SMILES | IC50 | inhibition at 0.2 µM | % Inh @ 0.2 (μM) |
| --- | --- | --- | --- |
| Cc1c(N(Cc2ccc(F)c(C(F)(F)F)c2)S(=O)(=O)c2ccc(-c3noc(=O)[nH]3)cc2)sc2ccccc12 [Compound 544, N-(3-Methyl-benzo[b]thiophen-2-yl)-N-(4-fluoro-3-trifluoromethyl-benzyl)-4-(5-oxo-4,5-dihydro-[1,2,4]oxadiazol-3-yl)-benzenesulfonamide] | 1.8 nM | 105% | – |
| Cc1c(N(CCCCC(F)(F)F)S(=O)(=O)c2ccc(C(=O)[O-])cc2)sc2ccccc12.[Na+] [Compound 545, Sodium, N-(3-Methylbenzo[b]thiophen-2-yl)-N-(5,5,5-trifluoro-pentyl)-4-carboxy-benzenesulfonamide] | 1.9 nM | – | 104.78% |
| Cc1c(N(Cc2ccc(F)c(C(F)(F)F)c2)S(=O)(=O)c2cccc(C#N)c2)sc2ccccc12 [Compound 546, N-(4-Fluoro-3-trifluoromethyl-benzyl)-N-(3-methyl-benzo[b]thiophen-2-yl)-3-cyano-benzenesulfonamide] | 68.3 nM | 85.7% | – |
| CC(C)c1c(N(Cc2ccc(F)c(C(F)(F)F)c2)S(=O)(=O)c2ccccc2)sc2ccccc12 [Compound 547, N-(4-Fluoro-3-trifluoromethyl-benzyl)-N-(3-isopropyl-benzo[b]thiophen-2-yl)-benzenesulfonamide] | 7.4 nM | 105% | – |
| CC(C)c1c(N(CCC2CC2)S(=O)(=O)c2ccccc2)sc2ccccc12 [Compound 548, N-(2-Cyclopropyl-ethyl)-N-(3-isopropyl-benzo[b]thiophen-2-yl)-benzenesulfonamide] | 28.9 nM | 102% | – |
| Cc1c(N(CCC2CC2)S(=O)(=O)c2cccc(C#N)c2)sc2ccccc12 [Compound 549, N-(2-Cyclopropyl-ethyl)-N-(3-methyl-benzo[b]thiophen-2-yl)-3-cyano-benzenesulfonamide] | 15.9 nM | 104% | – |
| Cc1c(N(CCC(F)(F)F)S(=O)(=O)c2cccc(C#N)c2)sc2ccccc12 [Compound 550, N-(3-Methyl-benzo[b]thiophen-2-yl)-N-(3,3,3-trifluoro-propyl)-3-cyano-benzenesulfonamide] | 18.8 nM | 104% | – |
| Cc1c(N(CCCC(F)(F)F)S(=O)(=O)c2cccc(C#N)c2)sc2ccccc12 [Compound 551, N-(3-Methyl-benzo[b]thiophen-2-yl)-N-(4,4,4-trifluoro-butyl)-3-cyano-benzenesulfonamide] | 88.6 nM | 94.4% | – |
| Cc1c(N(CCCCC(F)(F)F)S(=O)(=O)c2cccc(C#N)c2)sc2ccccc12 [Compound 552, N-(3-Methyl-benzo[b]thiophen-2-yl)-N-(5,5,5-trifluoro-pentyl)-3-cyano-benzenesulfonamide] | 25.1 nM | 101% | – |
| CCCCN(c1sc2ccccc2c1Cl)S(=O)(=O)NC [Compound 553, N-(3-Chloro-benzo[b]thiophen-2-yl)-N-(butyl)-N′-methyl-sulfamide] | – | 38.7% | – |
| CCCCN(c1sc2ccccc2c1Br)S(=O)(=O)NC [Compound 554, N-(3-Bromo-benzo[b]thiophen-2-yl)-N-(butyl)-N′-methyl-sulfamide] | – | 52.3% | – |
| Cc1c(N(Cc2ccc(F)c(C(F)(F)F)c2)S(=O)(=O)c2ccc(C(=O)NO)cc2)sc2ccccc12 [Compound 555, 4-([4-Fluoro-3-trifluoromethyl-benzyl)-(3-methyl-benzo[b]thiophen-2-yl)-sulfamoyl]-N-hydroxy-benzamide] | 21.9 nM | 102% | – |
| CCCCN(c1cc2ccccc2s1)S(=O)(=O)c1ccc(C(=O)O)cc1 [Compound 556, N-(Benzo[b]thiophen-2-yl)-N-(butyl)-4-carboxy-benzenesulfonamide] | 48.2 nM | 99.3% | – |
| Cc1c(N(Cc2ccc(F)c(C(F)(F)F)c2)S(=O)(=O)c2ccc(C(=O)O)cc2)sc2cc(C(F)(F)F)ccc12 [Compound 557, N-(3-Methyl-6-trifluoromethyl-benzo[b]thiophen-2-yl)-N-(4-fluoro-3-trifluoromethyl-benzyl)-4-carboxy-benzenesulfonamide] | – | 39.5% | – |
| CCCCN(c1sc2cc(C(F)(F)F)ccc2c1C)S(=O)(=O)c1ccc(C(=O)O)cc1 [Compound 558, N-(3-Methyl-6-trifluoromethyl-benzo[b]thiophen-2-yl)-N-(butyl)-4-carboxy-benzenesulfonamide] | 99.4 nM | 80.9% | – |
| CCCCN(c1sc2ccccc2c1Br)S(=O)(=O)c1ccc(N2CCOCC2)cc1 [Compound 559, N-(3-Bromo-benzo[b]thiophen-2-yl)-N-(butyl)-4-morpholine-benzenesulfonamide] | 3.2 nM | – | 104.59% |
| CCCCN(c1sc2ccccc2c1Br)S(=O)(=O)c1ccc(N(C)C)cc1 [Compound 560, N-(3-Bromo-benzo[b]thiophen-2-yl)-N-(butyl)-4-dimethylamino-benzenesulfonamide] | 65.7 nM | 104% | – |
| CCCCN(c1sc2ccccc2c1Cl)S(=O)(=O)c1ccc(N(C)C)cc1 [Compound 561, N-(3-Chloro-benzo[b]thiophen-2-yl)-N-(butyl)-4-dimethylamino-benzenesulfonamide] | 28.4 nM | 103% | – |
| CCCCN(c1sc2ccccc2c1Cl)S(=O)(=O)c1ccc(N2CCOCC2)cc1 [Compound 562, N-(3-Chloro-benzo[b]thiophen-2-yl)-N-(butyl)-4-morpholin-4-yl-benzenesulfonamide] | 33.1 nM | 103% | – |
| COC(=O)c1ccc(S(=O)(=O)N(Cc2ccc(F)c(C(F)(F)F)c2)c2sc3ccccc3c2C(C)C)cc1 [Compound 563, N-(4-Fluoro-3-trifluoromethyl-benzyl)-N-(3-isopropyl-benzo[b]thiophen-2-yl)-4-carbomethoxy-benzenesulfonamide] | 49.3 nM | 94% | – |
| COC(=O)c1ccc(S(=O)(=O)N(CCC2CC2)c2sc3ccccc3c2C(C)C)cc1 [Compound 564, N-(2-Cyclopropyl-ethyl)-N-(3-isopropyl-benzo[b]thiophen-2-yl)-4-carbomethoxy-benzenesulfonamide] | – | 57.7% | – |
| COC(=O)c1ccc(S(=O)(=O)N(CCCCC(F)(F)F)c2sc3ccccc3c2C(C)C)cc1 [Compound 565, N-(3-Isopropyl-benzo[b]thiophen-2-yl)-N-(5,5,5-trifluoro-pentyl)-4-carbomethoxy-benzenesulfonamide] | 117 nM | 74.4% | – |
| CC(C)c1c(N(Cc2ccc(F)c(C(F)(F)F)c2)S(=O)(=O)c2ccc(C(=O)O)cc2)sc2ccccc12 [Compound 566, N-(4-Fluoro-3-trifluoromethyl-benzyl)-N-(3-isopropyl-benzo[b]thiophen-2-yl)-4-carboxy-benzenesulfonamide] | 1.8 nM | 104% | – |
| CC(C)c1c(N(CCC2CC2)S(=O)(=O)c2ccc(C(=O)O)cc2)sc2ccccc12 [Compound 567, N-(2-Cyclopropyl-ethyl)-N-(3-isopropyl-benzo[b]thiophen-2-yl)-4-carboxy-benzenesulfonamide] | 10.3 nM | 104% | – |
| CC(C)c1c(N(CCCCC(F)(F)F)S(=O)(=O)c2ccc(C(=O)O)cc2)sc2ccccc12 [Compound 568, N-(5,5,5-Trifluoro-pentyl)-N-(3-isopropyl-benzo[b]thiophen-2-yl)-4-carboxy-benzenesulfonamide] | 2.4 nM | 104% | – |
